Tests used:
[1] = test system: ACAT; experiment: Assay of ACAT inhibitory activity in a specimen prepared from rabbit liver; assay type: biochemical, New Zealand white rabbit; settings: enzyme specimen from liver of cholesterol-fed rabbit, [1-^14C]oleoyl-CoA and endogenous cholesterol
Method: 1. Assay of ACAT inhibitory activity in a specimen prepared from rabbit liver
An enzyme specimen ACAT was prepared according to the method disclosed in the literature: J. Lipid. Research, 30, 681-690, 1989, from the liver of New Zealand white rabbit which had been fed with 1 % cholesterol feed for one month. The ACAT activity was determined according to the method disclosed in the literature: J. Lipid Research. 24, 1127-1134, 1983, i.e., using radioactive [1-^14C]oleoyl-CoA and endogenous cholesterol contained in the liver microsome, and calculated from the radioactivity of the labeled cholesterol oleate.

[2] = target: T1, ACAT (Rattus norvegicus, UniProt O70536); experiment: Assay of ACAT inhibitory activity in the macrophage derived from rat peritoneal; assay type: cell-based; settings: 10^-6 M, radioactive oleic acid and exogenous cholesterol in liposome, read-out: ACAT inhibitory rate (%) 10^-6 M
T1 construct: endogenous in cells; host or cells: rat peritoneal macrophages (primary cells)
T1 sequence (O70536 1-545): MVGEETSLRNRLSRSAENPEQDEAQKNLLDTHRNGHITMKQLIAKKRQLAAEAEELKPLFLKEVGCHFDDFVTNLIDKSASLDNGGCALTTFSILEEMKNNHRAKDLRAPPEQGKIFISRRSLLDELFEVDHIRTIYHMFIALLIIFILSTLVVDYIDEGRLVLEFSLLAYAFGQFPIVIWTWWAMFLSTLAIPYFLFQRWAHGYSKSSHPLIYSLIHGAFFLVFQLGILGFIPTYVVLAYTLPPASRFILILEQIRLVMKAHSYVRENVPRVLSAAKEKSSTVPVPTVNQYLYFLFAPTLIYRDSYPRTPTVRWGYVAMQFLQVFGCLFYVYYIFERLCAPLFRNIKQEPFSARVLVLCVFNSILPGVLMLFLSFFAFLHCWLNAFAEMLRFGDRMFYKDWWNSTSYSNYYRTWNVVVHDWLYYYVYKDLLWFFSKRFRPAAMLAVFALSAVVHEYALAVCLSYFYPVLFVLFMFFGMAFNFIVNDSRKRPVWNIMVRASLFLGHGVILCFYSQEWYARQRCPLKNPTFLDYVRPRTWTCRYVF
Method: 2. Assay of ACAT inhibitory activity in the macrophage derived from rat peritoneal
The rat peritoneal-derived macrophage was prepared according to the method disclosed in the literature: Biochimica et Biophysica Acta, 1126, 73-80, 1992. The ACAT activity was determined by a modified method of the method disclosed in the above literature: Biochimica et Biophysica Acta, 1126, 73-80, 1992, i.e., using radioactive [9,10-H]oleic acid and exogenous cholesterol contained in the liposome which was re-constituted according to the method disclosed in the literature: Biochimica Biophysica Acta, 1213, 127-134, 1994, and calculated from the labeled cholesterolyl oleate.

inhibition at 1 µM [2] [%] | SMILES | ACAT inhibitory rate (%) 10^-6 M [1] [%]
88 | CC(C)c1cccc(C(C)C)c1NC(=O)Nc1c(-c2ccccc2Cl)c2cccnc2n(C)c1=O [Example 4, N-[1-methyl-4-(2-chlorophenyl)-1,2-dihydro-2-oxo-1,8-naphthyridin-3-yl]-N'-(2,6-diisopropylphenyl)urea] | 87
– | CC(C)c1cccc(C(C)C)c1NC(=O)Nc1c(-c2ccccc2Cl)c2ccncc2n(C)c1=O [Example 6, N-[1-methyl-4-(2-chlorophenyl)-1,2-dihydro-2-oxo-1,7-naphthyridin-3-yl]-N'-(2,6-diisopropylphenyl)urea] | 82
94 | COc1cccc(-c2c(NC(=O)Nc3c(C(C)C)cccc3C(C)C)c(=O)n(C)c3ncccc23)c1 [Example 7, N-[1-methyl-4-(3-methoxyphenyl)-1,2-dihydro-2-oxo-1,8-naphthyridin-3-yl]-N'-(2,6-diisopropylphenyl)urea] | –
